# Earlier results as cited in patent US12527813B2, “Methods to stabilize and reverse atherosclerotic lesions by sulfated polysaccharides” (Calroy Health Sciences, LLC, priority 2017, dated 2026).
# System: lipid-rich necrotic core
# Settings: 24 months
compound,measurement,setting,value
CC(C)c1nc(N(C)S(C)(=O)=O)nc(-c2ccc(F)cc2)c1/C=C/[C@@H](O)C[C@@H](O)CC(=O)O [rosuvastation],"lipid-rich necrotic core reduced, low dose",5 mg/day,27%
same,lumen size and artery stenosis change,,virtually no change
same,"lipid-rich necrotic core reduced, all patients","33 patients, low or high dose",about 25%
same,"lipid-rich necrotic core reduced, high dose",40/80 mg/day,19%
